In ChEMBL document CHEMBL4219040, “Modulation of Glycine-Mediated Spinal Neurotransmission for the Treatment of Chronic Pain” (J Med Chem, 2018):
Numbering of substitutions follows the chain as printed.

Experiments:
[1] = target: T1, Glycine receptor subunit alpha-1 (Mus musculus, UniProt Q64018); assay: Positive allosteric modulation of mouse GlyRalpha1 expressed in HEK293 cells assessed as potentiation of glycine-induced calcium flux by calcium dye-5 based FLIPR assay; assay type: cell-based
T1 sequence (Q64018 whole entry): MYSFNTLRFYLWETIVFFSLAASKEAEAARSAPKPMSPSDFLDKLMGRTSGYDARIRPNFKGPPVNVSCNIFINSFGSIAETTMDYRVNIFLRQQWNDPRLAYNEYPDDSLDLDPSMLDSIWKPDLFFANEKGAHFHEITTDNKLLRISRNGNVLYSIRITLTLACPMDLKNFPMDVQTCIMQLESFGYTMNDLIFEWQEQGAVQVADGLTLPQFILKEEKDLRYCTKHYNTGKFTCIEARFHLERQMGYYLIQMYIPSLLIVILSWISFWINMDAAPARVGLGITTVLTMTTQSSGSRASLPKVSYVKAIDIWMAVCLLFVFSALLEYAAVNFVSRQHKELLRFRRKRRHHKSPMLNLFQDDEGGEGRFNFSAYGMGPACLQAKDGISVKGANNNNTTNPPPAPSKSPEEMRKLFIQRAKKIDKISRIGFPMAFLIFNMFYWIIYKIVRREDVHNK

[2] = target: T2, Glycine receptor subunit alpha-3 (Mus musculus) (UniProt Q91XP5); assay: Positive allosteric modulation of mouse GlyRalpha3 expressed in HEK293 cells assessed as potentiation of glycine-induced calcium flux by calcium dye-5 based FLIPR assay relative to glycine; assay type: cell-based
T2 sequence (whole entry): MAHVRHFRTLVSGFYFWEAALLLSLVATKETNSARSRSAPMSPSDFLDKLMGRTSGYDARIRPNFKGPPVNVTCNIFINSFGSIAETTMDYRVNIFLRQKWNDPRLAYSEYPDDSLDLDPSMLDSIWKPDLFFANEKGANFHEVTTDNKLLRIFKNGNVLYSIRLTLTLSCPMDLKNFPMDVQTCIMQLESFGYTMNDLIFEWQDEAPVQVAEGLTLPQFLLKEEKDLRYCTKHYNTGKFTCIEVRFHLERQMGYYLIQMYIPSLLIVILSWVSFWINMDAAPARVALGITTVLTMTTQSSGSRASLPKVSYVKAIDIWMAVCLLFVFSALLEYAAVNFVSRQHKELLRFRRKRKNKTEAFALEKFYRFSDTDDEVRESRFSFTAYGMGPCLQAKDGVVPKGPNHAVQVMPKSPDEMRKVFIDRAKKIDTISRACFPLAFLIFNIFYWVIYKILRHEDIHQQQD

[3] = target: T3, Glycine receptor subunit alpha-3 (Homo sapiens) (UniProt O75311); assay: Positive allosteric modulation of human GlyRalpha3 expressed in HEK293 cells assessed as potentiation of glycine-induced calcium flux by calcium dye-5 based FLIPR assay relative to glycine; assay type: cell-based
T3 sequence (whole entry): T2 sequence (whole entry) with N32D, T372M, V398M, V399T, A406P

[4] = target: T4, Glycine receptor subunit alpha-1 (Homo sapiens) (UniProt P23415); assay: Positive allosteric modulation of human GlyRalpha1 expressed in HEK293 cells assessed as potentiation of glycine-induced calcium flux by calcium dye-5 based FLIPR assay relative to glycine; assay type: cell-based
T4 sequence (whole entry): T1 sequence (Q64018 whole entry) with F9L, D362E, G365A, N396S, K457Q

[5] = target: T5, Glycine receptor alpha-3/beta (Homo sapiens, UniProt O75311+P48167); assay: Positive allosteric modulation of human GlyRalpha3beta expressed in HEK293 cells assessed as potentiation of glycine-induced calcium flux by calcium dye-5 based FLIPR assay relative to glycine; assay type: cell-based
[6] = target: Glycine receptor (alpha-1/beta) (Homo sapiens) (UniProt P23415+P48167); assay: Positive allosteric modulation of human GlyRalpha1beta expressed in HEK293 cells assessed as potentiation of glycine-induced calcium flux by calcium dye-5 based FLIPR assay relative to glycine; assay type: cell-based
[7] = target: T6, Glycine receptor subunit alpha-1 (Mus musculus) (UniProt Q64018); assay: Positive allosteric modulation of mouse GlyRalpha1 expressed in HEK293 cells assessed as potentiation of glycine-induced calcium flux by calcium dye-5 based FLIPR assay relative to glycine; assay type: cell-based
T6 sequence (whole entry): T1 sequence (Q64018 whole entry)

[8] = target: T7, Glycine receptor subunit alpha-3 (Mus musculus, UniProt Q91XP5); assay: Positive allosteric modulation of mouse GlyRalpha3 expressed in HEK293 cells assessed as potentiation of glycine-induced calcium flux by calcium dye-5 based FLIPR assay; assay type: cell-based
T7 sequence (Q91XP5 whole entry): T2 sequence (whole entry)

[9] = target: T3, Glycine receptor subunit alpha-3 (Homo sapiens); assay: Positive allosteric modulation of human GlyRalpha3 expressed in HEK293 cells assessed as potentiation of glycine-induced current flux at 100 uM by electrophysiology method relative to control; assay type: cell-based
[10] = target: T8, Glycine receptor subunit alpha-3 (Homo sapiens, UniProt O75311); assay: Positive allosteric modulation of human GlyRalpha3 expressed in HEK293 cells assessed as potentiation of glycine-induced current flux by electrophysiology method; assay type: cell-based
T8 sequence (O75311 whole entry): T2 sequence (whole entry) with N32D, T372M, V398M, V399T, A406P

[11] = target: T4, Glycine receptor subunit alpha-1 (Homo sapiens); assay: Positive allosteric modulation of human GlyRalpha1 expressed in HEK293 cells assessed as potentiation of glycine-induced current flux at 100 uM by electrophysiology method relative to control; assay type: cell-based
[12] = target: T5, Glycine receptor alpha-3/beta; assay: Positive allosteric modulation of human GlyRalpha3beta expressed in CHO cells assessed as potentiation of EC20 glycine-induced response at 5.9 uM by fluorescence based HTS assay; assay type: cell-based
[13] = target: T5, Glycine receptor alpha-3/beta; assay: Positive allosteric modulation of human GlyRalpha3beta expressed in CHO cells assessed as potentiation of EC5 to EC10 glycine-induced response at 10 uM by manual patch clamp assay; assay type: cell-based
Mus musculus [14] = species on record: Mus musculus; assay: Analgesic activity in zymosan-A induced inflammation GlyR3 knock out mouse model assessed as reduction in mechanical hyperalgesia; assay type: functional; set-up: scale not given: the % may be the effect or the level left
[15] = target: T2, Glycine receptor subunit alpha-3 (Mus musculus); assay: Allosteric modulation of GlyRalpha3 in VGAT::ChR2 BAC transgenic mouse lumbar spinal cord slices assessed as increase in decay time constants of light-evoked Gly-IPSC at 100 uM by Whole cell patch clamp method
[16] = target: T2, Glycine receptor subunit alpha-3 (Mus musculus); assay: Allosteric modulation of zymosan-A treated GlyRalpha3 in VGAT::ChR2 BAC transgenic mouse lumbar spinal cord slices assessed as increase in decay time constants of light-evoked Gly-IPSC at 100 uM by Whole cell patch clamp method
[17] = target: T5, Glycine receptor alpha-3/beta; assay: Positive allosteric modulation of human GlyRalpha3beta expressed in CHO cells assessed as potentiation of EC20 glycine-induced ion flux at 10 uM by HT assay; assay type: cell-based
Mus musculus [18] = species on record: Mus musculus; assay: Analgesic activity in zymosan-A induced inflammation mouse model assessed as reduction in mechanical hyperalgesia; assay type: functional; set-up: scale not given: the % may be the effect or the level left

SMILES: CN1C(=O)[C@@H]2CN(S(=O)(=O)c3ccc4occc4c3)C[C@@H]2c2cnccc21
- EC50 [1]: 268 nM
- Emax [2]: 63.5%
- Emax [3]: 100%
- Emax [4]: 102%
- Emax [5]: 102%
- Emax [6]: 104%
- Emax [7]: 93.5%
- EC50 [8]: 490 nM

SMILES: CC1=C[C@@H](/C=C(\C)CCCC2=CCN(CC(=O)O)C2=O)[C@]2(OC(=O)C(C)(O)C2=O)[C@@H]2[C@@H](C)CC[C@@H]12 (stereo partly drawn)
- Activity [9]: 260%
- EC50 [10]: 8500 nM
- Activity [11]: 110%

SMILES: CC(C)(C)c1cccc(C(C)(C)C)c1O
- Activity [12]: 134%
- Activity [13]: 309%
- Activity (Mus musculus [14]): 16%
- Activity [15]: 54%
- Activity [16]: 23.5%
- Activity [17]: 116%
- Activity (Mus musculus [18]): 44.3%
